The values that follow come from PubChem BioAssay AID206 (DTP/NCI, 2004).

“And” between values parts separate entries of the source, which are not always exact repeats. Equal values may be shown once. Results filed as inconclusive are left out.

This assay has as its system nude mice, HT29 intrarenal xenograft, tumor weight T/C. Nature of the assay: NCI In Vivo Anticancer Drug Screen. Data for tumor model HT29;CX-1 Human Adenocarcinoma (MER+) (intrarenal inoculation) in NU/NU Swiss (nude) mice. To be noted: endpoint: mean tumor weight change, higher = larger tumour. The method, then:
The antitumor activity of compounds was measured in mice bearing transplantable tumors. Survival or tumor size were measured and the results are expressed as the measurement made in the treated group (T) divided by the measurement made in the vehicle treated control group (C). The tumor model used in this assay is HT29;CX-1 Human Adenocarcinoma (MER+) (intrarenal inoculation) in NU/NU Swiss (nude) mice

Where [1] appears, read: dose: 100.0 mg/kg/injection, schedule: Q04DX004 (sc), vehicle: Klucel (hydroxypropylcellulose) (HPC).
Where [2] appears, read: dose: 200.0 mg/kg/injection, schedule: Q04DX004 (sc), vehicle: Klucel (hydroxypropylcellulose) (HPC).
Where [3] appears, read: dose: 150.0 mg/kg/injection, schedule: Q04DX004 (sc), vehicle: Klucel (hydroxypropylcellulose) (HPC).
The mark [4] stands for this setting: dose: 300.0 mg/kg/injection, schedule: Q04DX004 (sc), vehicle: Klucel (hydroxypropylcellulose) (HPC).
[5] abbreviates: dose: 600.0 mg/kg/injection, schedule: Q04DX004 (sc), vehicle: Klucel (hydroxypropylcellulose) (HPC).
Setting [6] is: dose: 1200.0 mg/kg/injection, schedule: Q04DX004 (sc), vehicle: Klucel (hydroxypropylcellulose) (HPC).
[7] abbreviates: dose: 2400.0 mg/kg/injection, schedule: Q04DX004 (sc), vehicle: Klucel (hydroxypropylcellulose) (HPC).
[8] abbreviates: dose: 50.0 mg/kg/injection, schedule: Q01DX010 (sc), vehicle: saline.
[9] abbreviates: dose: 100.0 mg/kg/injection, schedule: Q01DX010 (sc), vehicle: saline.
Where [10] appears, read: dose: 200.0 mg/kg/injection, schedule: Q01DX010 (sc), vehicle: saline.

`CC(=O)OCC1OC(OC2=C(CC=C(C)C)C(=O)c3ccccc3C2=O)C(OC(C)=O)C(OC(C)=O)C1OC(C)=O` (stereo not given): the T/C is, setting by setting: under setting [1], 159 % of control; under setting [2], 105 % of control.
As to `CC(C)[NH-].CC(C)[NH-].[Cl][Pt+2][Cl]`, the T/C (dose: 37.5 mg/kg/injection, schedule: Q04DX004 (sc), vehicle: dextrose) was 58 % of control; the T/C (dose: 75.0 mg/kg/injection, schedule: Q04DX004 (sc), vehicle: dextrose) is 43 % of control; the T/C (dose: 150.0 mg/kg/injection, schedule: Q04DX004 (sc), vehicle: dextrose) is 21 % of control.
As to `COc1cc2c(c(OC)c1OC)-c1ccc(OC)c(=O)cc1[C@@H](NC(=O)CCl)CC2`, the T/C is 60 % of control (dose: 0.63 mg/kg/injection, schedule: Q04DX004 (sc), vehicle: saline with Tween-80); 32 % of control (dose: 1.25 mg/kg/injection, schedule: Q04DX004 (sc), vehicle: saline with Tween-80); 57 % of control (dose: 2.5 mg/kg/injection, schedule: Q04DX004 (sc), vehicle: saline with Tween-80).
For `COc1ccc(S(=O)(=O)N/N=C/C(=O)O)cc1`, the T/C (dose: 25.0 mg/kg/injection, schedule: Q04DX004 (sc), vehicle: saline with Tween-80) was 94 % of control; the T/C (dose: 50.0 mg/kg/injection, schedule: Q04DX004 (sc), vehicle: saline with Tween-80) was 90 % of control and 102 % of control; the T/C (dose: 100.0 mg/kg/injection, schedule: Q04DX004 (sc), vehicle: saline with Tween-80) is 59 % of control and 82 % of control.
For the compound `CN1CCc2c(c3ccccc3c3ccccc23)C1`, the T/C reads like this: under setting [3], 105 % of control; under setting [4], 80 % of control; under setting [5], 111 % of control.
For `COCC(O)Cn1ccnc1[N+](=O)[O-]` (stereo not given), the T/C runs as follows: (dose: 300.0 mg/kg/injection, schedule: Q04DX004 (sc), vehicle: suspension in saline) 86 % of control; (dose: 600.0 mg/kg/injection, schedule: Q04DX004 (sc), vehicle: suspension in saline) 80 % of control; (dose: 1200.0 mg/kg/injection, schedule: Q04DX004 (sc), vehicle: suspension in saline) 75 % of control.
Take `C1OC1C1CO1` (stereo not given): the T/C is, setting by setting: (dose: 12.5 mg/kg/injection, schedule: Q01DX010 (sc), vehicle: saline) 164 % of control; (dose: 25.0 mg/kg/injection, schedule: Q01DX010 (sc), vehicle: saline) 168 % of control.
On to `O=C(O)c1cc(Cc2ccc(O)c(C(=O)O)c2)ccc1O` (tested in a mixture with another compound), for which the T/C reads like this: under setting [4], 62 % of control; under setting [5], 57 % of control; under setting [6], 114 % of control; under setting [7], 104 % of control.
Regarding `CCCCCCCCCCCCCCC/C([O-])=N/[N+](C)(C)CC(C)O` (stereo not given), the T/C is, setting by setting: (dose: 50.0 mg/kg/injection, schedule: Q04DX004 (sc), vehicle: Klucel (hydroxypropylcellulose) (HPC)) 106 % of control; under setting [1], 103 % of control; under setting [2], 86 % of control; (dose: 400.0 mg/kg/injection, schedule: Q04DX004 (sc), vehicle: Klucel (hydroxypropylcellulose) (HPC)) 110 % of control.
Consider `CC(=O)NC(C=O)OCC=O` (stereo not given), for which the T/C (dose: 100.0 mg/kg/injection, schedule: Q04DX004 (sc), vehicle: water) is 106 % of control and the T/C (dose: 200.0 mg/kg/injection, schedule: Q04DX004 (sc), vehicle: water) was 121 % of control.
In the case of `C=C1CC2(OC1=O)C(=O)N(C)c1ccc(I)cc12` (stereo not given), the T/C was 80 % of control (dose: 37.5 mg/kg/injection, schedule: Q04DX004 (sc), vehicle: suspension in saline); 71 % of control (dose: 75.0 mg/kg/injection, schedule: Q04DX004 (sc), vehicle: suspension in saline); 81 % of control (dose: 150.0 mg/kg/injection, schedule: Q04DX004 (sc), vehicle: suspension in saline).
Take `Ic1ncnc2c1ncn2C1CCCO1` (stereo not given): the T/C by setting is: under setting [4], 55 % of control; under setting [5], 112 % of control; under setting [7], 72 % of control.
On to `Nc1nc(=O)n(C2OC(CO)C(O)C2O)cc1F` (stereo not given), for which the T/C was 122 % of control (dose: 150.0 mg/kg/injection, schedule: Q04DX004 (ip), vehicle: saline); 56 % of control (dose: 300.0 mg/kg/injection, schedule: Q04DX004 (ip), vehicle: saline); 83 % of control (dose: 600.0 mg/kg/injection, schedule: Q04DX004 (ip), vehicle: saline); 26 % of control (dose: 600.0 mg/kg/injection, schedule: Q04DX004 (sc), vehicle: saline); 42 % of control (dose: 1200.0 mg/kg/injection, schedule: Q04DX004 (ip), vehicle: saline); 11 % of control (dose: 1200.0 mg/kg/injection, schedule: Q04DX004 (sc), vehicle: saline).
For the compound `CCOC(=O)c1c[nH]c2oc(/C=N/N3CC(CN4CCOCC4)OC3=O)cc2c1=O` (stereo not given), the T/C runs as follows: under setting [8], 69 % of control; under setting [9], 124 % of control; under setting [10], 86 % of control.
Turning to `Cn1cnc([N+](=O)[O-])c1[Se]c1nc(N)nc2nc[nH]c12`, under “dose: 50.0 mg/kg/injection, schedule: Q01DX010 (sc), vehicle: water”, the T/C is 100 % of control.
For the compound `Nc1ncn(C2CC(O)C(CO)O2)c(=O)n1` (stereo not given), the T/C (dose: 0.2 mg/kg/injection, schedule: Q01DX010 (sc), vehicle: saline) was 84 % of control.
As for `CO[C@H]1C[C@](C)(O)Cc2cc3c(c(O)c21)C(=O)c1c(O)cc2c(c1C3=O)O[C@@H]1O[C@@]2(C)[C@H](O)[C@@H](N(C)C)[C@@H]1O`, for the setting “dose: 50.0 mg/kg/injection, schedule: Q04DX004 (sc), vehicle: other”, the T/C is 99 % of control.
In the case of `O=C(O)Cc1cccc2c(=O)cc(-c3ccccc3)oc12`, the T/C (dose: 112.0 mg/kg/injection, schedule: Q04DX003 (ip), vehicle: sodium bicarbonate) is 42 % of control; the T/C (dose: 150.0 mg/kg/injection, schedule: Q04DX003 (ip), vehicle: sodium bicarbonate) was 90 % of control; the T/C (dose: 200.0 mg/kg/injection, schedule: Q01DX001 (ip), vehicle: sodium bicarbonate) is 105 % of control; the T/C (dose: 200.0 mg/kg/injection, schedule: Q04DX003 (ip), vehicle: sodium bicarbonate) is 46 % of control; the T/C (dose: 267.0 mg/kg/injection, schedule: Q01DX001 (ip), vehicle: sodium bicarbonate) was 52 % of control.
Consider `C1CCC2[N-]CC3CCCCC3[N-]CC3CCCCC3[N-]CC3CCCCC3[N-]CC2C1.[Cu]` (stereo not given), for which the T/C was 35 % of control (dose: 6.25 mg/kg/injection, schedule: Q01DX010 (sc), vehicle: Klucel (hydroxypropylcellulose) (HPC)); 49 % of control (dose: 12.5 mg/kg/injection, schedule: Q01DX010 (sc), vehicle: Klucel (hydroxypropylcellulose) (HPC)); 54 % of control (dose: 25.0 mg/kg/injection, schedule: Q01DX010 (sc), vehicle: Klucel (hydroxypropylcellulose) (HPC)).
For `COC1CC(C)C(OC)c2cc(O)cc(c2O)NC(=O)/C(C)=C/C=C\C(C)C(OC(N)=O)/C(C)=C\C(C)C1OC` (stereo not given), under “dose: 50.0 mg/kg/injection, schedule: Q04DX004 (sc), vehicle: saline + alcohol”, the T/C was 113 % of control.
As for `N=C(N)Sc1ccccn1`, the T/C was 89 % of control under setting [8]; 100 % of control under setting [9]; 41 % of control under setting [10]; 74 % of control (dose: 400.0 mg/kg/injection, schedule: Q01DX010 (sc), vehicle: saline).
For the compound `Cc1nn(CCO)c(C)c1N=[N+]([O-])c1c(C)nn(CCO)c1C`, the T/C (dose: 75.0 mg/kg/injection, schedule: Q04DX004 (sc), vehicle: Klucel (hydroxypropylcellulose) (HPC)) is 68 % of control; the T/C under setting [3] was 70 % of control; the T/C under setting [4] was 44 % of control; the T/C under setting [5] was 53 % of control; the T/C under setting [6] was 102 % of control.
